The target in this test is T1, NfoR (NAD(P)H-flavin oxidoreductase) (Staphylococcus aureus, UniProt Q2FVA4).
T1 construct: gene SAOUHSC_02829; N-terminal 6xHis tag, pET-28a (pEnfoR), E. coli Rosetta (DE3), HisTrap; dimer by homology model only; residues named: His100, His128, Cys163, Met165
T1 sequence (Q2FVA4 1-223): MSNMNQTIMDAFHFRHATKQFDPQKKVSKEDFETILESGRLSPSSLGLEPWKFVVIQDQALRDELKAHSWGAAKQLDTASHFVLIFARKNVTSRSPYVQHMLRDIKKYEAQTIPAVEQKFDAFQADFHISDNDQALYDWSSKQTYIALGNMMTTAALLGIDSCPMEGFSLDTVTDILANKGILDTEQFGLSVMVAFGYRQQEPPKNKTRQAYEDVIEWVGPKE
Briefly: HPLC of flavin released by heating the purified protein. Format: binding. The note with it: FMN co-purified with the protein; non-covalent; occupancy, not an affinity.

The source of these data is paper PMC5684319, “Copper (II) binding of NAD(P)H- flavin oxidoreductase (NfoR) enhances its Cr (VI)-reducing ability” (Scientific Reports, 2017).

Regarding `Cc1cc2nc3c(=O)[nH]c(=O)nc-3n(C[C@H](O)[C@H](O)[C@H](O)COP(=O)(O)O)c2cc1C` [FMN], the “percent of FMN/isolated NfoR” value came out at 79.98%.
